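Growth conditions: 96-well plates. Treatment: test compound, 48 hours, 5 concentrations. Analysis: linear interpolation between bracketing concentrations; unreached endpoints set to highest concentration. GI50: concentration for 50% inhibition of growth.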 Active and inactive are the calls of the source. Cut-off read from the data, not from the text of the source: active = GI50 up to about 1.1 µM and inactive = higher.
Key:
Test in all cases: NCI tumour cell line growth inhibition, 48 h
A549 = tested on: A549
BT-549 = tested on: BT-549
CAKI-1 = tested on: CAKI-1
EKVX = tested on: EKVX
HCC 2998 = tested on: HCC 2998
HL-60 = tested on: HL-60
HOP-92 = tested on: HOP-92
KM12 = tested on: KM12
MCF7 = tested on: MCF7
MDA-MB-231 = tested on: MDA-MB-231
NCI-H23 = tested on: NCI-H23
NCI-H522 = tested on: NCI-H522
NCI/ADR-RES = tested on: NCI/ADR-RES
OVCAR-3 = tested on: OVCAR-3
PC-3 = tested on: PC-3
RXF 393 = tested on: RXF 393
SF-268 = tested on: SF-268
SF-539 = tested on: SF-539
SK-MEL-28 = tested on: SK-MEL-28
UO-31 = tested on: UO-31

Row | SMILES | GI50 (A549) | GI50 (BT-549) | GI50 (CAKI-1) | GI50 (EKVX) | GI50 (HCC 2998) | GI50 (HL-60) | GI50 (HOP-92) | GI50 (KM12) | GI50 (MCF7) | GI50 (MDA-MB-231) | GI50 (NCI-H23) | GI50 (NCI-H522) | GI50 (NCI/ADR-RES) | GI50 (OVCAR-3) | GI50 (PC-3) | GI50 (RXF 393) | GI50 (SF-268) | GI50 (SF-539) | GI50 (SK-MEL-28) | GI50 (UO-31)
1 | CC(=O)O[C@H]1C(=O)[C@@]2(C)[C@H]([C@H](OC(=O)c3ccoc3)[C@]3(O)C[C@H](OC(=O)[C@H](O)[C@@H](NC(=O)c4ccccc4)c4ccccc4)C(C)=C1C3(C)C)[C@]1(OC(C)=O)CO[C@@H]1C[C@@H]2O | 0.115 µM (active) | 0.615 µM (active) | 8.18 µM (inactive) | > 9.59 µM (inactive) | 0.116 µM (active) | 0.0107 µM (active) | > 12.5 µM (inactive) | 0.0344 µM (active) | 0.0138 µM (active) | 3.05 µM (inactive) | > 12.5 µM (inactive) | 0.0434 µM (active) | > 10.9 µM (inactive) | 0.0296 µM (active) | 0.053 µM (active) | 0.277 µM (active) | 0.0583 µM (active) | 0.0286 µM (active) | > 12.5 µM (inactive) | > 8.91 µM (inactive)
2 | Cn1c2ccccc2c2cc(-c3ccccc3)c3c(c21)C(=O)C=CC3=O | 60.1 µM (inactive) | 12.4 µM (inactive) | 18.3 µM (inactive) | 39.7 µM (inactive) | 34.1 µM (inactive) | 4.52 µM (inactive) | 14.5 µM (inactive) | 20 µM (inactive) | 12.3 µM (inactive) | 23.2 µM (inactive) | 17.2 µM (inactive) | 17.5 µM (inactive) | 41.3 µM (inactive) | 16.4 µM (inactive) | 18.4 µM (inactive) | 15.8 µM (inactive) | 28.4 µM (inactive) | 27.3 µM (inactive) | 20.4 µM (inactive) | 19.8 µM (inactive)
3 | O=c1[nH]c2nc3ccccc3c(=O)n2/c1=C/c1ccccc1 | > 100 µM (inactive) | 17.1 µM (inactive) | 47.4 µM (inactive) | 35.3 µM (inactive) | 31 µM (inactive) | 56.1 µM (inactive) | 20.7 µM (inactive) | 38.5 µM (inactive) | 44.2 µM (inactive) | > 100 µM (inactive) | 30.3 µM (inactive) | 17.1 µM (inactive) | 43.6 µM (inactive) | 22 µM (inactive) | 92 µM (inactive) | 55 µM (inactive) | 20.6 µM (inactive) | 22.5 µM (inactive) | 45.1 µM (inactive) | 78 µM (inactive)
4 | COC(=O)CCC(C)[C@H]1CCC2C3CC[C@@H]4CC5(CC[C@]4(C)C3C[C@H](OC(C)=O)[C@@]21C)OOC1(CCCCC1)OO5 (stereo not given in full) | 9.77 µM (inactive) | 27.6 µM (inactive) | 4.03 µM (inactive) | 1.9 µM (inactive) | 2.25 µM (inactive) | 2.49 µM (inactive) | 46.6 µM (inactive) | 8.85 µM (inactive) | 8.69 µM (inactive) | > 100 µM (inactive) | 9.55 µM (inactive) | 6.01 µM (inactive) | 81.1 µM (inactive) | 15.3 µM (inactive) | 6.55 µM (inactive) | > 100 µM (inactive) | 19.7 µM (inactive) | 44.7 µM (inactive) | 27.7 µM (inactive) | 2.67 µM (inactive)

Source: ChEMBL document CHEMBL1201862, “PubChem BioAssay data set” (2004)
